The values below come from patent EP1908472A1, “Silicon derivatives for PET imaging” (Bayer Schering Pharma Aktiengesellschaft, priority 2006, dated 2008).

Some results are limits rather than exact numbers.

The nature of data set [1]: Hydrolytic stability of 19F fluorosilanes (hydrolysis to the hydroxy compound) at physiological pH. The format is physicochemical. To be noted: for remaining at 6 h / half-life: buffer; for remaining at 6 h: fraction of intact 19F compound after 6 hours under hydrolytic conditions at pH 7; for half-life: hydrolytic halflife, physiological pH (7.0), 19F compound, calculated from the kinetics; for rel. stability: ratio of hydrolytic halflife to radioactive halflife of 18-F (1.83 hours), pH 7.0. The method, then:
The time dependent degree of hydrolysis of compounds of formula I in which X is a fluorine atom of isotope 19 to compounds of formula I in which X is a hydroxy group was determined at physiological pH (7.0). From the kinetics the hydrolytic halflife (t1/2) measured in hours [h] of compounds of formula I in which X is a fluorine atom of isotope 19 were calculated (Table 1, column 2).
The ratio of the hydrolytic halflifes of compounds of formula I in which X is a fluorine atom of isotope 19 and the radioactive halflife of the 18-F isotope (1.83 hours) is defined as relative stability (Table 1, column 3).
After 6 hours 90% of the 18-F isotope have been decayed.
Compounds of formula I in which X is a fluorine atom of isotope 18 are considered as useful for PET applications if the relative stability of their analogs bearing a fluorine atom of isotope 19 exceed a factor of four and if at least 50% of these compounds remain intact after 6 hours under hydrolytic conditions at pH 7.

For data set [2] the following is noted: rats allowed to inhale the gas; shows fast release of fluoride in vivo; cited from earlier work.

`CC(C)[Si](F)(c1ccc(CCOC2CCCCO2)cc1)C(C)C` (racemic) [3b - F, (RS)-Fluoro-diisopropyl-{4-[2-(tetrahydro-pyran-2-yloxy)-ethyl]-phenyl}-silane]: in data set [1], the share remaining at 6 h was determined as 94%, the half-life is 76.4 h and the rel. stability is recorded as 41.8.
In the case of `CC(C)[Si](F)(c1ccc(CC(=O)O)cc1)C(C)C` [5b - F, [4-(Fluoro-diisopropyl-silanyl)-phenyl]-acetic acid], in data set [1], the amount remaining at 6 h came out at 82%, the half-life was 24.7 h and the rel. stability is reported as 13.5.
With `CC(C)[Si](F)(c1cccc(CC(=O)O)c1)C(C)C` [5e - F, [3-(Fluoro-diisopropyl-silanyl)-phenyl]-acetic acid], in data set [1], the share remaining at 6 h was 78%, the half-life is 20 h and the rel. stability came out at 10.9.
Regarding `CC(C)[Si](F)(c1ccc(CCC(=O)O)cc1)C(C)C` [5c - F, 3-[4-(Fluoro-diisopropyl-silanyl)-phenyl]-propionic acid], in data set [1], the amount remaining at 6 h was 92%, the half-life is 59 h and the rel. stability is 32.2.
On to `CC(C)[Si](F)(c1cccc(CCCO)c1)C(C)C` [4d - F, 3-[3-(Fluoro-diisopropyl-silanyl)-phenyl]-propan-1-ol], for which, in data set [1], the fraction remaining at 6 h amounted to 89%, the half-life was 43.3 h and the rel. stability is reported as 23.7.
On the same counts, the results for `CC(C)C[Si](F)(CC(C)C)c1ccc(C(=O)O)cc1` [5g - F, 4-(Fluoro-diisobutyl-silanyl)-benzoic acid] are 31%, 3.5 h and 1.9.
Regarding `CC(C)[Si](F)(c1ccc(C(=O)O)cc1)C(C)C` [5a - F, 4-(Fluoro-diisopropyl-silanyl)-benzoic acid], in data set [1], the amount remaining at 6 h is 66%, the half-life is 10.9 h and the rel. stability is given as 6.1.
Consider `CC(C)[Si](F)(CCCNC(=O)c1ccccc1)C(C)C` [22 - F, N-[3-(Fluoro-diisopropyl-silanyl)-propyl]-benzamide], for which, in data set [1], the amount remaining at 6 h was 83%, the half-life is 33.6 h and the rel. stability came to 18.4.
Take `CC(C)[Si](F)(c1ccc(CCCOC2CCCCO2)cc1)C(C)C` (racemic) [3c - F, (RS)-Fluoro-diisopropyl-{4-[3-(tetrahydro-pyran-2-yloxy)-propyl]-phenyl}-silane]: in data set [1], the amount remaining at 6 h stood at 95%, the half-life was 99.9 h and the rel. stability was 54.6.
As for `CC(C)C[Si](F)(CCCCC(=O)Nc1ccccc1)CC(C)C` [30a - 1F, 5-(Fluoro-diisobutyl-silanyl)-pentanoic acid phenylamide], in data set [1], the amount remaining at 6 h worked out at 71%, the half-life is 13.8 h and the rel. stability is reported as 7.5.
Take `CC(C)[Si](F)(c1cccc(CCO)c1)C(C)C` [4e - F, 2-[3-(Fluoro-diisopropyl-silanyl)-phenyl]-ethanol]: in data set [1], the fraction remaining at 6 h was determined as 78%, the half-life is 23.3 h and the rel. stability turned out to be 12.7.
For `CC(C)[Si](F)(c1cccc(CCOC2CCCCO2)c1)C(C)C` (racemic) [3e - F, (RS)-Fluoro-diisopropyl-{3-[2-(tetrahydro-pyran-2-yloxy)-ethyl]-phenyl}-silane], in data set [1], the fraction remaining at 6 h was above 95%, the half-life is above 100 h and the rel. stability is above 54.6.
Turning to `CC(C)C[Si](F)(CC(C)C)c1ccc(COC2CCCCO2)cc1` (racemic) [Compound 3g-F, (RS)-Fluoro-diisobutyl-[4-(tetrahydro-pyran-2-yloxymethyl)-phenyl]-silane], in data set [1], the share remaining at 6 h stood at 59%, the half-life was 8.1 h and the rel. stability is listed as 4.5.
The corresponding values for `CC(C)[Si](F)(c1ccc(CO)cc1)C(C)C` [4a -F, [4-(Fluoro-diisopropyl-silanyl)-phenyl]-methanol] are 85%, 28.1 h and 15.4.
As for `C[Si](C)(C)[18F]` [^18F-Fluorotrimethylsilane], in data set [2], the “uptake of ^18F in the bone” value is reported as “extensive uptake of ^18F in the bone”.
For the molecule `CC(C)C[Si](F)(CC(C)C)c1ccc(CCOC2CCCCO2)cc1` (racemic) [Compound 3h-F, (RS)-Fluoro-diisobutyl-{4-[2-(tetrahydro-pyran-2-yloxy)-ethyl]-phenyl}-silane], in data set [1], the amount remaining at 6 h was 79%, the half-life is 19.2 h and the rel. stability turned out to be 10.7.
Consider `CC(C)[Si](F)(c1ccc(COC2CCCCO2)cc1)C(C)C` (racemic) [3a - F, (RS)-Fluoro-diisopropyl-[4-(tetrahydro-pyran-2-yloxymethyl)-phenyl]-silane], for which, in data set [1], the share remaining at 6 h was found to be 90%, the half-life is 49.4 h and the rel. stability is listed as 27.0.
In the case of `F[Si](c1ccccc1)(c1ccccc1)c1ccc(CCOC2CCCCO2)cc1` (racemic) [3f - F, (RS)-Fluoro-diphenyl-{4-[2-(tetrahydro-pyran-2-yloxy)-ethyl]-phenyl}-silane], in data set [1], the share remaining at 6 h was below 1%, the half-life is 0.07 h and the rel. stability is 0.04.
The corresponding values for `CC(C)[Si](F)(c1cccc(CCCOC2CCCCO2)c1)C(C)C` (racemic) [3d - F, (RS)-Fluoro-diisopropyl-{3-[3-(tetrahydro-pyran-2-yloxy)-propyl]-phenyl}-silane] are above 95%, above 100 h and above 54.6.
Turning to `CC(C)[Si](F)(c1ccc(CCCO)cc1)C(C)C` [4c - F, 3-[4-(Fluoro-diisopropyl-silanyl)-phenyl]-propan-1-ol], in data set [1], the amount remaining at 6 h worked out at 90%, the half-life was above 100 h and the rel. stability is above 54.6.
For `CC(C)C[Si](F)(CC(C)C)c1ccc(CC(=O)O)cc1` [5h - F, [4-(Fluoro-diisobutyl-silanyl)-phenyl]-acetic acid], in data set [1], the share remaining at 6 h was 61%, the half-life was 8.7 h and the rel. stability is on record as 4.8.
As for `CC(C)[Si](F)(c1cccc(CCC(=O)O)c1)C(C)C` [5d - F, 3-[3-(Fluoro-diisopropyl-silanyl)-phenyl]-propionic acid], in data set [1], the share remaining at 6 h was determined as 81%, the half-life was 22.2 h and the rel. stability turned out to be 12.1.
On the same counts, the results for `CC(C)[Si](F)(c1ccc(CCO)cc1)C(C)C` [4b - F, 2-[4-(Fluoro-diisopropyl-silanyl)-phenyl]-ethanol] are 84%, 66.8 h and 36.5.
